Results from patent US20050221381A1, “Method for isolating ligands” (priority 2002, published 2005).
Read-outs that look alike come from different tables or passages of the source.

Columns and labels:
[1] = target: T1, soluble DRB1*0404 molecules (Homo sapiens, UniProt P01903+P01911, A100R/A169T/F76Y/I96L/K127E/L162R/M171V/N62H/P40V/Q125Y/R42H/S133A/S149N/S66Y/V209L/W38E); experiment: Peptide binding assay, SDS-stability assay; set-up: key: −: no binding; +/−: weak binding; +: intermediate binding; ++: strong binding; conditions: individual pp65 15mer
T1 construct: Soluble HLA class I A*0201 and HLA class II DRA1*0101/DRB1*0101/Ii, DRA1*0101/DRB1*0401/Ii and DRA1*0101/DRB1*0404/Ii molecules were expressed in SC-2 cells; made in house; host or cells: SC-2 cells

[2] = target: T2, soluble DRB1*0401 molecules (DR4) (Homo sapiens, UniProt P01903+P01911, A100K/A169T/F76Y/I96L/K127E/L162R/M171V/N62H/P40V/Q125Y/R42H/S133A/S149N/S66Y/V115G/V209L/W38E); type: binding; set-up: key: +++: high binding affinity; ++: moderate binding affinity; +: low binding affinity; −: no binding; conditions: individual pp65 15mer, SDS-stability assay
T2 construct: Soluble HLA class I A*0201 and HLA class II DRA1*0101/DRB1*0101/Ii, DRA1*0101/DRB1*0401/Ii and DRA1*0101/DRB1*0404/Ii molecules were expressed in SC-2 cells; made in house; host or cells: SC-2 cells

[3] = test system: HLA-DRB1*0401-transgenic mice splenocytes; type: in vivo, mouse; set-up: key to DRB1*0401 mice total SC (T cell response) / DRB1*0401 mice CD4+ (T cell response): −: no binding/T cell response; +/−: weak binding/T cell response; +: intermediate binding/T cell response; ++: strong binding/T cell response
[4] = target: DRB1*0701 (Homo sapiens, UniProt P01903+P01911, A100R/A102G/A103Q/D57E/D86V/E43K/F76Y/K127E/L162R/M171V/P40G/Q125H/Q99D/R33Q/R42Y/R54Q/S133A/S66F/T210M/V115G/Y107V/Y59L/Y89S); experiment: Peptide-competition assay with biotinylated CLIP peptide (ELISA); type: binding; set-up: key: −: no binding/T cell response; +/−: weak binding/T cell response; +: intermediate binding/T cell response; ++: strong binding/T cell response
Experimental: (§1) The binding affinities to DRB1*0701 and DRB1*1101 were tested by a peptide-competition assay (Reay et al., 1992). Briefly, binding of the biotinylated CLIP peptide (reference peptide) has been used for monitoring of HLA:peptide complex formation. […] In the case of lower affinity peptides they should be added in excess to the reference peptide to compete for occupancy of HLA binding grove. […] Alternatively, comparing of the amount of reference peptide bound to HLA molecules in the presence or absence of competitor peptide one can determine the binding activity of the peptide of interest.
(§2) In the present peptide-competition assay conditions of peptide binding were similar to described above. Soluble HLA molecules were used in the concentration of 0.5 μM and biotinylated CLIP was added to all samples in the final concentration of 2 μM. Competitor peptides were added in three different concentrations: 0.25, 5 and 100 μM. Binding reaction was performed in PBS buffer (pH 7.4) for 18 hours at 37° C. […] Briefly, MaxiSorb 96-well plates (Nunc, Denmark) were coated with mouse anti-αβ antibody L243 (purified from ATCC HB-55) by overnight incubation with 50 μl of 10 μg/ml dilution in PBS at 4° C. Non-specific binding to the plastic was blocked by incubation with T-PBS containing 3% of BSA for 2 hours at 37° C. and binding reactions were then “captured” for 2 hours at room temperature. […] The optical density at 405 nm was measured on a microplate reader SUNRISE (Tecan).

[5] = target: DRB1*1101 (Homo sapiens, UniProt P01903+P01911, A100R/A169T/A87E/I96F/K41T/L162R/M171V/P40S/Q125H/Q178H/Q39Y/Q99D/R42S/S66Y/T262R/V115G/W38E); experiment: as above; type: binding; set-up: key: −: no binding/T cell response; +/−: weak binding/T cell response; +: intermediate binding/T cell response; ++: strong binding/T cell response; conditions: for Binding to DRB1*1101: longer peptides no. 1500-1505, peptide-competition assay
Experimental: as §1, §2

[6] = target: T2, soluble DRB1*0401 molecules (DR4); type: binding; set-up: key: −: no binding/T cell response; +/−: weak binding/T cell response; +: intermediate binding/T cell response; ++: strong binding/T cell response
[7] = target: T1, soluble DRB1*0404 molecules; experiment: Peptide binding assay, SDS-stability assay; set-up: key: −: no binding/T cell response; +/−: weak binding/T cell response; +: intermediate binding/T cell response; ++: strong binding/T cell response
[8] = target: T2, soluble DRB1*0401 molecules (DR4); type: binding; set-up: key to Binding to DRB1 *0401: −: no binding/T cell response; +/−: weak binding/T cell response; +: intermediate binding/T cell response; ++: strong binding/T cell response
[9] = target: T3, soluble DRB1*0101 molecules (Homo sapiens, UniProt P01903+P01911, A100R/D57E/F55L/F60I/F76Y/I96L/L162R/M171V/P40L/Q125E/R42F/V115G/Y59C); experiment: Peptide binding assay, SDS-stability assay; set-up: key: −: no binding/T cell response; +/−: weak binding/T cell response; +: intermediate binding/T cell response; ++: strong binding/T cell response
T3 construct: Soluble HLA class I A*0201 and HLA class II DRA1*0101/DRB1*0101/Ii, DRA1*0101/DRB1*0401/Ii and DRA1*0101/DRB1*0404/Ii molecules were expressed in SC-2 cells; made in house; host or cells: SC-2 cells

[10] = target: T2, soluble DRB1*0401 molecules (DR4); type: binding; set-up: key: −: no binding; +/−: weak binding; +: intermediate binding; ++: strong binding; conditions: individual pp65 15mer, SDS-stability assay
[11] = test system: DRB1*0401, DRB1*0101, DRB1*0404, DRB1*0701 and DRB1*1101; experiment: Binding to soluble HLA molecules of different allels (promiscuity); set-up: species or system human
Experimental: In peptide binding reactions HLA molecules were used in a concentration of 0.5 μM, and each single peptide was added in 10-fold molar excess (5 μM) if not mentioned differently. […] The reaction was performed in PBS buffer (pH 7.4) at room temperature for 48 hours in the presence of a protease inhibitor cocktail (Roche) and 0.1% octyl-b-D-glucopyranoside (Sigma).
Peptide binding was evaluated in an SDS-stability assay (Gorga et al., 1987): trimeric HLA class II ab-peptide complexes are resistant to SDS and consequently appear as ˜60 kDa band in SDS-PAGE Western blot analysis. Individual HLA class II α and β chains not stabilized by a peptide binding with intermediate to high affinity migrate as ˜35 kDa and ˜30 kDa bands, respectively.
as §1, §2
Some of the identified DRB1*0401 binding peptides, as well as others chosen by prediction algorithms were also tested for binding to soluble HLA molecules of different allels: DRB1*0101, DRB1*0404, DRB1*0701 and DRB1*1101 (Table 3).

[12] = longer peptides no. 1500-1505, peptide-competition assay
[13] = CD4+ fraction of splenocytes, IFN-γ ELISpot
[14] = IFN-gamma ELISpot, enriched CD4+ fraction of splenocytes of HLA-DR4 transgenic mice vaccinated with the longer peptide, ex vivo re-stimulation
[15] = IFN-gamma ELISpot, total splenocytes of HLA-DR4 transgenic mice vaccinated with the longer peptide, ex vivo re-stimulation
[16] = total splenocytes, ex vivo restimulation, IFN-γ ELISpot

| Sequence | Binding to DRB1*0404 [1] | Binding to DRB1 *0701 ([4]; DRB1*0701) | Binding to DRB1 *0701 [4, 12] | Binding to DRB1 1101 [5] | Binding to DRB1*1101 [5] | Binding to DRB1*0404 ([7]; longer peptides no. 1500-1505) | Binding to DRB1*0404 ([7]; soluble DRB1*0404 molecules) | Binding to DRB1*0101 ([9]; longer peptides no. 1500-1505) | Binding to DRB1*0101 ([9]; soluble DRB1*0101 molecules) | DRB1*0401 mice CD4+ (T cell response) [3, 14] | DRB1*0401 mice total SC (T cell response) [3, 15] | Binding to DRB1 *0401 ([8]; soluble DRB1*0401 molecules) | other results |
| --- | --- | --- | --- | --- | --- | --- | --- | --- | --- | --- | --- | --- | --- |
| LARNLVPMVATVQGQ [Peptide 492] | ++ |  |  |  |  |  |  |  |  |  |  |  | Binding to DRB1*0401 [2]: − |
| LLQRGPQYSEHPTFTSQYRIQG [Peptide 1502] |  | − | − | ++ | ++ | − | − | − | − |  |  |  | CD4+ / CD8+ response of separated splenocytes ([3]; mouse, in vivo): simultaneous CD4+ and CD8+ response; DRB1*0401 mice CD4+ (T cell response) ([3]; mouse, in vivo): ++; DRB1*0401 mice total SC (T cell response) ([3]; mouse, in vivo, sc): + and ++; Binding to DRB1*0401 [6]: +; Binding to DRB1 *0401 [8]: + |
| PSLILVSQYTPDSTPCHRGDNQLQVQHTR [Peptide 1500] |  | − | − | − | − | ++ | ++ | + | + | + | + | ++ | DRB1*0401 mice CD4+ (T cell response) [3, 13]: +; DRB1*0401 mice total SC (T cell response) [3, 16]: +; Binding to DRB1*0401 ([6]; longer peptides no. 1500-1505): ++ |
| QGQNLKYQEFFWDANDIYRIF [Peptide 1505] |  | − | − | − | − | − | − | − | − | ++ | ++ | + | DRB1*0401 mice CD4+ (T cell response) [3, 13]: ++; Immunogenicity in DRB1*0401-transgenic mice (in words) ([3]; total splenocytes, INF-gamma ELISpot (FIG. 12)): highest frequency of T cells; DRB1*0401 mice total SC (T cell response) [3, 16]: ++; Binding to DRB1*0401 ([6]; longer peptides no. 1500-1505): +/−; Binding to soluble DRB1*0401 molecules (in words) ([8]; SDS-stability assay): not so good in binding assay |
| RNLVPMVATVQGQNL [Peptide 494] | ++ |  |  |  |  |  |  |  |  |  |  |  | Binding to DRB1*0401 [2]: − |
| TRGRLKAESTVAPEE [Peptide 452] | + | − |  | − |  |  | ++ |  | ++ | ++ | + | + | Binding to DRB1*0401 [10]: +; Affinity for several HLA molecules (promiscuity) [11]: affinity for at least two HLA molecules |
| VSQYTPDSTPCHRGD [Peptide 58] |  | − |  | − |  |  | − |  | + | + | ++ | ++ | Binding to DRB1*0401 [10]: ++; Affinity for several HLA molecules (promiscuity) [11]: affinity for at least two HLA molecules |
